Tests used:
[1] = crystal stability in aqueous solutions (brightfield microscopy); format: physicochemical; conditions: 1-2 mg crystal, 300 μL saline, RPMI-1640 media, 1X PBS or saline with 0.1% SDS; solutions replaced every hour; after 36 hours
Source text: After crystals visibly stopped precipitating or growing, the vessel was submerged in an ultrasonic water bath for 10-30 seconds to dislodge crystals from the vessel sidewall and break them into more a uniform size distributions, either smaller fines, for example 50 μm, or between 150-200 μm, as measured by brightfield and scanning electron microscopy, shown in FIGS. 2A-2B. Resultant product was then removed from the supernatant mother solution, dried, weighed, and stored for later use. On average, yielded crystal was approximately 40% of the starting powder. Furthermore, methods exist to quantify solubilized material, typically using optics to identify changes in light transmittance, and enabled testing of crystal stability in a range of aqueous solutions. To do so, between 1-2 mg of crystal was placed in a 96-well plate with 300 μL of DMSO, saline, RPMI-1640 media, 1X phosphate buffer solution (PBS), or saline with 0.1% sodium dodecyl sulfate (SDS). […] To simulate cumulative drug release over time, all 3 mL supernatant volumes were removed and replaced with completely fresh release media at desired times of 1 hr, 4 hr, 6 hr, 8 hr, 10 hr, 1 day, 2 days, 5 days, 7 days, 10 days and 12 days, and 200 μL aliquots were measured in individual wells of a 96-well plate at 266 nm to determine solubilize sorafenib release, as shown in FIG. 2D.

[2] = system: choroidal neovascularization (CNV); assay: mouse laser-induced CNV model, fundus fluorescein angiography; format: in vivo; conditions: two intravitreal doses (14 days before and 1 day after laser) vs saline; p=0.0290 single lesion analysis
Source text: Wet age-related macular degeneration (wet AMD) is a leading cause of blindness in the U.S. and globally, requiring effective treatments, particularly with the use of drugs or treatments that allow sustained management of the disease. Choroidal neovascularization (CNV), or pathologic angiogenesis, is the cause of the visual loss that occurs in wet AMD. Therefore, sorafenib is also a possible treatment for wet AMD, but the effect of the drug when delivered in a liquid form is brief. It has been shown that optimized crystal formulations of sorafenib providing sustained release have the potential to work over a longer period of time. As shown herein, the experiments tested the effect of intravitreal administration of crystal sorafenib vs. vehicle, in saline, of sorafenib in a mouse laser-induced CNV model. FIG. 5 depicts a timeline of an experimental procedure, in accordance with the present disclosure. Crystalline sorafenib, as described herein, was administered to two batches of mice. In the first batch of mice, 16 mice were injected, 14 days before a laser treatment and 1 day after laser treatment. In the second batch of mice, 13 mice were injected 7 days before laser treatment. FIGS. 6A-6D depict charts of fluorescent intensity as measured with the use of fundus fluorescein angiography (FFA), according to the present disclosure. […]

SMILES: CNC(=O)c1cc(Oc2ccc(NC(=O)Nc3ccc(Cl)c(C(F)(F)F)c3)cc2)ccn1 [crystalline sorafenib, sorafenib]
- difference in crystal size by brightfield microscopy [1]: no noticeable difference
- CNV (FFA fluorescent intensity) [2]: appears to reduce CNV
